From ChEMBL document CHEMBL5316328, “Discovery of AXL Degraders with Improved Potencies in Triple-Negative Breast Cancer (TNBC) Cells” (J Med Chem, 2023)
Blank lines part the entries; values can stand above or below the compound they belong to. Active and inactive are the calls of the source. No cut-off for these calls is given here.

Experiments:
[1] = tested on: MDA-MB-231; assay: Induction of apoptosis in human MDA-MB-231 cells assessed as early apoptotic cells at 33.3 nM incubated for 48 hrs by Annexin V-PE staining based flow cytometric analysis (reference value: 3.95 to 3.74%); type: functional
[2] = tested on: MDA-MB-231; assay: Induction of apoptosis in human MDA-MB-231 cells assessed as late apoptotic cells at 300 nM incubated for 48 hrs by Annexin V-PE staining based flow cytometric analysis (reference value: 0.32 to 0.82%); type: functional
[3] = tested on: MDA-MB-231; assay: Induction of cell cycle arrest in human MDA-MB-231 cells assessed as S phase cells at 33.3 nM incubated for 24 hrs by PI staining based flow cytometric analysis (reference value: 9.64 to 10.79%); type: functional
[4] = tested on: MDA-MB-231; assay: Induction of cell cycle arrest in human MDA-MB-231 cells assessed as decrease in CDK2 level at 100 to 300 nM by Western blot analysis; type: functional, cell-based; settings: dose 100-300 nM
[5] = tested on: MDA-MB-231; assay: Inhibition of cell invasion in human MDA-MB-231 cells at 3.7 to 100 nM incubated for 18 hrs by transwell assay; type: functional, cell-based; settings: dose 3.7-100 nM
[6] = tested on: MDA-MB-231; assay: Induction of cell cycle arrest in human MDA-MB-231 cells assessed as accumulation of cell at G2/M phase at 100 nM incubated for 24 hrs by PI staining based flow cytometric analysis (reference value: 24.34 to 24.44%); type: functional
[7] = tested on: MDA-MB-231; assay: Induction of cell cycle arrest in human MDA-MB-231 cells assessed as G0/G1 phase cells at 100 nM incubated for 24 hrs by PI staining based flow cytometric analysis (reference value: 63.32 to 64.94%); type: functional
[8] = tested on: MDA-MB-231; assay: Induction of apoptosis in human MDA-MB-231 cells assessed as necrotic cells at 300 nM incubated for 48 hrs by Annexin V-PE staining based flow cytometric analysis (reference value: 2.64 to 3.23%); type: functional
[9] = tested on: MDA-MB-231; assay: Induction of apoptosis in human MDA-MB-231 cells assessed as late apoptotic cells at 100 nM incubated for 48 hrs by Annexin V-PE staining based flow cytometric analysis (reference value: 0.32 to 0.82%); type: functional
[10] = tested on: MDA-MB-231; assay: Induction of cell cycle arrest in human MDA-MB-231 cells assessed as accumulation of cell at G2/M phase at 300 nM incubated for 24 hrs by PI staining based flow cytometric analysis (reference value: 24.34 to 24.44%); type: functional
[11] = tested on: MDA-MB-436; assay: Antiproliferative activity against human MDA-MB-436 cells expressing AXL assessed as inhibition of cell growth incubated for 72 hrs by CCK8 assay; type: functional, cell-based; settings: MDA-MB-436, 72 h
[12] = tested on: MDA-MB-231; assay: Induction of cell cycle arrest in human MDA-MB-231 cells assessed as S phase cells at 300 nM incubated for 24 hrs by PI staining based flow cytometric analysis (reference value: 9.64 to 10.79%); type: functional
[13] = tested on: MDA-MB-231; assay: Induction of cell cycle arrest in human MDA-MB-231 cells assessed as G0/G1 phase cells at 300 nM incubated for 24 hrs by PI staining based flow cytometric analysis (reference value: 63.32 to 64.94%); type: functional
[14] = tested on: MDA-MB-231; assay: Induction of apoptosis in human MDA-MB-231 cells assessed as early apoptotic cells at 100 nM incubated for 48 hrs by Annexin V-PE staining based flow cytometric analysis (reference value: 3.95 to 3.74%); type: functional
[15] = tested on: MDA-MB-231; assay: Induction of apoptosis in human MDA-MB-231 cells assessed as upregulation of cleaved PARP expression at 100 to 300 nM by Western blot analysis; type: functional, cell-based; settings: dose 100-300 nM
[16] = tested on: MDA-MB-231; assay: Induction of apoptosis in human MDA-MB-231 cells assessed as viable cells at 100 nM incubated for 48 hrs by Annexin V-PE staining based flow cytometric analysis (reference value: 92.59 to 92.71%); type: functional; settings: read-out: Activity
[17] = tested on: MDA-MB-231; assay: Induction of cell cycle arrest in human MDA-MB-231 cells assessed as G0/G1 phase cells at 33.3 nM incubated for 24 hrs by PI staining based flow cytometric analysis (reference value: 63.32 to 64.94%); type: functional
[18] = tested on: MDA-MB-231; assay: Induction of apoptosis in human MDA-MB-231 cells assessed as viable cells at 300 nM incubated for 48 hrs by Annexin V-PE staining based flow cytometric analysis (reference value: 92.59 to 92.71%); type: functional; settings: read-out: Activity
[19] = tested on: MDA-MB-231; assay: Induction of cell cycle arrest in human MDA-MB-231 cells assessed as decrease in cyclin B1 level at 100 to 300 nM by Western blot analysis; type: functional, cell-based; settings: dose 100-300 nM
[20] = tested on: MDA-MB-231; assay: Inhibition of migration in human MDA-MB-231 cells at 3.7 to 100 nM incubated for 18 hrs by transwell assay; type: functional, cell-based; settings: dose 3.7-100 nM
[21] = tested on: MDA-MB-231; assay: Induction of cell cycle arrest in human MDA-MB-231 cells assessed as S phase cells at 100 nM incubated for 24 hrs by PI staining based flow cytometric analysis (reference value: 9.64 to 10.79%); type: functional
[22] = tested on: MDA-MB-231; assay: Induction of apoptosis in human MDA-MB-231 cells assessed as early apoptotic cells at 300 nM incubated for 48 hrs by Annexin V-PE staining based flow cytometric analysis (reference value: 3.95 to 3.74%); type: functional
[23] = tested on: MDA-MB-231; assay: Induction of apoptosis in human MDA-MB-231 cells assessed as viable cells at 33.3 nM incubated for 48 hrs by Annexin V-PE staining based flow cytometric analysis (reference value: 92.59 to 92.71%); type: functional; settings: read-out: Activity
[24] = tested on: MDA-MB-231; assay: Induction of apoptosis in human MDA-MB-231 cells assessed as late apoptotic cells at 33.3 nM incubated for 48 hrs by Annexin V-PE staining based flow cytometric analysis (reference value: 0.32 to 0.82%); type: functional
[25] = tested on: MDA-MB-453; assay: Antiproliferative activity against human MDA-MB-453 cells assessed as inhibition of cell growth incubated for 72 hrs by CCK8 assay; type: functional, cell-based; settings: MDA-MB-453, 72 h
[26] = biological target: ALK tyrosine kinase receptor (Homo sapiens, UniProt Q9UM73); assay: Inhibition of ALK (unknown origin)
Sequence of ALK tyrosine kinase receptor (Q9UM73 whole entry): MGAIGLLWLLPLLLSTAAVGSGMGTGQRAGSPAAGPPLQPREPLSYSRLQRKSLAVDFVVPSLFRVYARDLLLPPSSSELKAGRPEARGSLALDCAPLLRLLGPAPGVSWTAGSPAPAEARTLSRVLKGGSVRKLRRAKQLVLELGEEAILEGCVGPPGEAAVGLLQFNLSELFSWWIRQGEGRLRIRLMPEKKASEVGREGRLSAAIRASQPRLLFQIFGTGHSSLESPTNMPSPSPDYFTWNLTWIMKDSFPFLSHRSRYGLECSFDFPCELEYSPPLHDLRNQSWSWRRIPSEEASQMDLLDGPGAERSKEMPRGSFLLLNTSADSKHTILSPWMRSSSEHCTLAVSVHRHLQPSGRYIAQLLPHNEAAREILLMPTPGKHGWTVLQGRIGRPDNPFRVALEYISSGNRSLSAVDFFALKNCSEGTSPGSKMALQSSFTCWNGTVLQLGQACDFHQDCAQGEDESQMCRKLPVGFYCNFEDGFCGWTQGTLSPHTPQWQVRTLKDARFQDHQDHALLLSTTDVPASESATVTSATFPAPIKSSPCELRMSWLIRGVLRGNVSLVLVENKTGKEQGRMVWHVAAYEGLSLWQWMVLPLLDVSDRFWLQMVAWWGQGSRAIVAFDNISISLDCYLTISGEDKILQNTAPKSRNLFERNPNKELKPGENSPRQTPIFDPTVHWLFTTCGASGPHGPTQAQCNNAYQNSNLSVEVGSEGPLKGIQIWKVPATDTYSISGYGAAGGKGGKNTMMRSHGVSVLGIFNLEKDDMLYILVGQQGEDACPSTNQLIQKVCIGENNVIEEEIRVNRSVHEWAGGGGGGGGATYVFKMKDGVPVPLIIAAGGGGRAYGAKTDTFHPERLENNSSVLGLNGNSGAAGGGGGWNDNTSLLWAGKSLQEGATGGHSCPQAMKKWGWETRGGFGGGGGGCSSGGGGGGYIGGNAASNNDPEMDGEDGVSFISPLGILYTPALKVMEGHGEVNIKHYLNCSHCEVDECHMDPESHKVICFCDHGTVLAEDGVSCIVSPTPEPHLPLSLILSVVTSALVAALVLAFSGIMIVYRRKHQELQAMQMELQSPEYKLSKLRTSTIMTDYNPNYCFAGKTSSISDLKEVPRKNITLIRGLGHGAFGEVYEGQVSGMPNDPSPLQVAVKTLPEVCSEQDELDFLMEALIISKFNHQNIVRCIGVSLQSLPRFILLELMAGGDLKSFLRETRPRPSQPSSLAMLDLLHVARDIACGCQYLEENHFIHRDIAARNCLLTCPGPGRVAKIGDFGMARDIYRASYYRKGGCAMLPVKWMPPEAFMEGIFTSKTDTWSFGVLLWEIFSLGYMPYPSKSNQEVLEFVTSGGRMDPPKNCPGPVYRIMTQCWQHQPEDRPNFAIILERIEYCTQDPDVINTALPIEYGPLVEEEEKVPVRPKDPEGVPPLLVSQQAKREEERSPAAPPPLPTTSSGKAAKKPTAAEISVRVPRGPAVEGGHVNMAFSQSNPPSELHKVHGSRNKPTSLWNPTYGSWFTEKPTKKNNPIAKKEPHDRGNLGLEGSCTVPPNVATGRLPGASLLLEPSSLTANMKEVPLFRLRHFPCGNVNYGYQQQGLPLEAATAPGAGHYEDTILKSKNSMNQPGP

[27] = tested on: MDA-MB-231; assay: Induction of apoptosis in human MDA-MB-231 cells assessed as necrotic cells at 100 nM incubated for 48 hrs by Annexin V-PE staining based flow cytometric analysis (reference value: 2.64 to 3.23%); type: functional
[28] = tested on: MDA-MB-231; assay: Antiproliferative activity against human MDA-MB-231 cells expressing AXL assessed as inhibition of cell growth incubated for 72 hrs by CCK8 assay; type: functional, cell-based; settings: MDA-MB-231, 72 h
[29] = tested on: MDA-MB-231; assay: Induction of apoptosis in human MDA-MB-231 cells assessed as necrotic cells at 33.3 nM incubated for 48 hrs by Annexin V-PE staining based flow cytometric analysis (reference value: 2.64 to 3.23%); type: functional
[30] = biological target: Serine/threonine-protein kinase AKT (Homo sapiens) (UniProt P31751+Q9Y243+P31749); assay: Inhibition of AKT phosphorylation in human MDA-MB-231 at 1.2 to 100 nM incubated for 18 hrs by Western blot analysis; type: cell-based; settings: dose 1.2-100 nM
Sequence of Serine/threonine-protein kinase AKT (Homo sapiens) (P31749 whole entry, looked up): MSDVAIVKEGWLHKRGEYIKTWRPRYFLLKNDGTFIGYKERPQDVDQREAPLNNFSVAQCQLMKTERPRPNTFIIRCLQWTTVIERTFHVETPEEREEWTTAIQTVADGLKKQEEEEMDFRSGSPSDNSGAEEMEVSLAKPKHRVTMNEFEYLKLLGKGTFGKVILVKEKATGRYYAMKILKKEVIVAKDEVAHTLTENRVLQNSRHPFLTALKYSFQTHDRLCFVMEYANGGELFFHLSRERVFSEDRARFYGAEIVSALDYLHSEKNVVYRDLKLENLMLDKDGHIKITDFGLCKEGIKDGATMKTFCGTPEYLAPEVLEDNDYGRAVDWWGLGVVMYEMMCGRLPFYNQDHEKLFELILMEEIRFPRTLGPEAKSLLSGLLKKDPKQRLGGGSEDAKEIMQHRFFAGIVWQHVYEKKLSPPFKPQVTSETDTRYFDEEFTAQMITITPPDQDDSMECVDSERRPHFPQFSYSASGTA
Sequence of Serine/threonine-protein kinase AKT (Homo sapiens) (P31751 whole entry, looked up): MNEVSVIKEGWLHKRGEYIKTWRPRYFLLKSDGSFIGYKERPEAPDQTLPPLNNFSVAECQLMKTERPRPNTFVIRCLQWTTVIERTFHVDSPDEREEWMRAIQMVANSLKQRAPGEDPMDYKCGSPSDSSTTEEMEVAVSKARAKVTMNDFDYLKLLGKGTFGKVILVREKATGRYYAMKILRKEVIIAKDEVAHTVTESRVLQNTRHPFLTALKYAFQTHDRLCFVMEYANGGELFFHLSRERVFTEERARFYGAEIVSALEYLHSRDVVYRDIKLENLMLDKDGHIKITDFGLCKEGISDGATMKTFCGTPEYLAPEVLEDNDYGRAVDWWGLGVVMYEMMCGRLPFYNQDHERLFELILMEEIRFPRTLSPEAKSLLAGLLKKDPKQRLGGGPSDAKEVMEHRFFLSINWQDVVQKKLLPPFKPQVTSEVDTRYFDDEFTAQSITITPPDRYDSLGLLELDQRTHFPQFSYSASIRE
Sequence of Serine/threonine-protein kinase AKT (Homo sapiens) (Q9Y243 whole entry, looked up): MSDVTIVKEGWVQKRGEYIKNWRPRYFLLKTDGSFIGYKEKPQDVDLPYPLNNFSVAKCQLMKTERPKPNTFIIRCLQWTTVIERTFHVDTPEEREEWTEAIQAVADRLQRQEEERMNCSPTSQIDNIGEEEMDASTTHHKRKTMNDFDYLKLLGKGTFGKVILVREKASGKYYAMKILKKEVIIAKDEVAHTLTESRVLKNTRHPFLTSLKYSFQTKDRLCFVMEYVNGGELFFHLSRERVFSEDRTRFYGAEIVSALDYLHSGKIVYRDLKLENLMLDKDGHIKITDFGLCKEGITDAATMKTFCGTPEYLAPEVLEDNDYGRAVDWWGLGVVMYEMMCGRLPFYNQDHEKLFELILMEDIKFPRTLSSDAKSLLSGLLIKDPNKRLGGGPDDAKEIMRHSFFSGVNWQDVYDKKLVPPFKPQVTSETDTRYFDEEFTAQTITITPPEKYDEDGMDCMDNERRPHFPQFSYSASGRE

[31] = tested on: MDA-MB-231; assay: Induction of cell cycle arrest in human MDA-MB-231 cells assessed as accumulation of cell at G2/M phase at 33.3 nM incubated for 24 hrs by PI staining based flow cytometric analysis (reference value: 24.34 to 24.44%); type: functional
[32] = tested on: MDA-MB-231; assay: Induction of apoptosis in human MDA-MB-231 cells assessed as downregulation of caspase-9 expression at 100 to 300 nM by Western blot analysis; type: functional, cell-based; settings: dose 100-300 nM
[33] = Antitumor activity against patient-derived breast cancer organoid assessed as reduction in cell viability incubated for 120 hrs by CellTiter-Glo 3D assay; type: functional, tissue-based; settings: Homo sapiens
[34] = organism: Homo sapiens; assay: Antitumor activity against patient-derived breast cancer organoid assessed as phenotypic change at 5 uM incubated for 120 hrs by bright-field imaging microscopic analysis; type: functional, tissue-based

IC50 [11]: > 5 µM | IC50 [25]: > 5 µM | IC50 [26]: 0.00492 µM | IC50 [28]: > 5 µM | inhibition [30]: inactive
SMILES: CCc1ccc2c(c1)c(=O)c(C(=O)Nc1ccc(Oc3ncnc4cc(OC)c(OC)cc34)c(F)c1)c(C)n2C
Activity [1]: 3.01% | Activity [2]: 0.15% | Activity [3]: 12.03% | Activity [4]: inactive | inhibition [5]: Active | Activity [6]: 24.87% | Activity [7]: 52.76% | Activity [8]: 1.66% | Activity [9]: 0.41% | Activity [10]: 27.64% | Activity [12]: 9.32% | Activity [13]: 61.26% | Activity [14]: 3.02% | Activity [15]: inactive | viability at 0.1 µM [16]: 94.6% | Activity [17]: 56.88% | viability at 0.3 µM [18]: 95.1% | Activity [19]: inactive | inhibition [20]: inactive | Activity [21]: 16.56% | Activity [22]: 3.11% | viability at 0.0333 µM [23]: 94.9% | Activity [24]: 0.29% | Activity [27]: 1.99% | Activity [29]: 1.8% | Activity [31]: 26.91% | Activity [32]: inactive

SMILES: CC(=O)O[C@H]1C(=O)[C@@]2(C)[C@H]([C@H](OC(=O)c3ccccc3)[C@]3(O)C[C@H](OC(=O)[C@H](O)[C@@H](NC(=O)c4ccccc4)c4ccccc4)C(C)=C1C3(C)C)[C@]1(OC(C)=O)CO[C@@H]1C[C@@H]2O [PACLITAXEL]
IC50 [33]: > 5 µM | Activity [34]: inactive
